Tests used:
[1] = tested on: TNF-α production in LPS-activated RAW264.7 cells; experiment: TNF-α production in LPS-activated RAW264.7 cells (ELISA); format: cell-based, mouse; conditions: IC20 concentration, 2 h pre-treatment then 1 µg/mL LPS 24 h
Description: (§1) For the measurement of tumor necrosis factor-alpha (TNF-α) and NO, RAW264.7 cells were pre-treated with plant extracts and active compounds at a non-cytotoxic dose (IC20) (Table S9) or 1 µg/mL of dexamethasone (positive control) in a 24-well plate for 2 h. Subsequently, 1 µg/mL of lipopolysaccharide (LPS) (Cat No. 00497693, Invitrogen™, MA, USA) was added to each well, and the cells were incubated for an additional 24 h to allow sufficient time for the compounds to exert measurable anti-inflammatory effects while maintaining cell viability. Afterward, supernatants were collected, and the levels of TNF-α and NO were measured using the Mouse TNF alpha Uncoated ELISA Kit (Invitrogen™, ThermoFisher Scientific, MA, USA) and the Total Nitric Oxide Assay Kit (Invitrogen™, ThermoFisher Scientific, MA, USA), respectively, according to the manufacturer’s instructions.
(§2) The percentage of NO or cytokine inhibitions were calculated using the following equation: […]
(§3) where A is the level of cytokine or NO without treatment, and B is the level of cytokine or NO with treatment.

[2] = tested on: NO production in LPS-activated RAW264.7 cells; experiment: NO production in LPS-activated RAW264.7 cells; format: cell-based, mouse; conditions: IC20 concentration, 2 h pre-treatment then 1 µg/mL LPS 24 h
Description: as §1, §2, §3

KG-1a cells = experiment: Cell cycle and apoptosis (sub-G1) assay by flow cytometry in KG-1a cells; format: cell-based, human; conditions: 48 h; for change of cell cycle phase population compared to VC: IC20 concentrations; for G2/M phase population: IC50 concentrations
Description: After treating KG-1a cells with active compounds at various concentrations for 48 h, the cells were pulsed with 10 µM BrdU (Sigma-Aldrich, MA, USA) for 20 min at 37 °C in an incubator with 5% CO2. Subsequently, the cells were harvested, washed with ice-cold PBS, pH 7.4 three times, and then fixed with 70% ethanol in PBS, pH 7.4 at −30 °C. Following fixation, the cells were washed and resuspended in 2 N HCl/0.5% Triton X-100 for 30 min at room temperature (RT). Then, 0.1 M sodium tetraborate decahydrate was added for 2 min at RT to neutralize the acid. Subsequently, the cells were stained with FITC-anti-BrdU antibody for 30 min at RT. After washing, the cells were resuspended in propidium iodide (PI) (Dojindo, Kumamoto, Japan) in PBS, pH 7.4 at a ratio of 1:1,000. The cell cycle phases were detected using a flow cytometer (CytoFLEX S, Beckman Coulter, CA, USA) and analyzed with the CytExpert program (Beckman Coulter, CA, USA).
The flow cytometry data were analyzed to assess both apoptosis and cell cycle distribution. Apoptosis was evaluated by determining the percentage of cells in the sub-G1 phase using the Nicoletti assay. For cell cycle analysis, populations in the G1, S, and G2/M phases were calculated after excluding the sub-G1 population to avoid interference from apoptotic cells, allowing for a clearer assessment of cell cycle arrest in different phases. Data were presented in separate graphs for the sub-G1 population and cell cycle phase distributions.

[3] = tested on: IL-2 production in PHA-activated PBMCs; experiment: IL-2 production in PHA-activated PBMCs (ELISA); format: cell-based, human; conditions: IC20 concentration, 2 h pre-treatment then 20 µL/mL PHA 24 h
Description: For the measurement of interleukin-2 (IL-2), human PBMCs were pre-treated with plant extracts and active compounds at the IC20 concentration (Table S9) or 1 µg/mL of dexamethasone (positive control) in a 24-well plate for 2 h. Subsequently, 20 µL/mL of phytohemagglutinin (PHA) (Cat. No. 10576015, Thermo Fisher Scientific, MA, USA) was added to each well, and the cells were incubated for an additional 24 h. After that, supernatants were collected, and the levels of IL-2 were measured by the Human IL-2 Uncoated ELISA Kit (Invitrogen™, ThermoFisher Scientific, MA, USA), according to the manufacturer’s instructions.
as §2, §3

[4] = IC20 concentration (nocodazole 6 ng/mL, curcumin 3 µg/mL, shogaol 0.12 µg/mL)
[5] = higher concentrations than IC20

CCCCC/C=C/C(=O)CCc1ccc(O)c(OC)c1 [Shogaol, shogaol]
inhibition of TNF-α release [1]: 24.41 ± 0.99%
inhibition of NO release [2]: 46.46 ± 3.71%
decrease of S phase population (KG-1a cells; 1.5 µg/mL, sub-G1 excluded): 40.56 ± 3.82%
effect on sub-G1 population compared to VC (KG-1a cells; [4]): did not significantly increase the sub-G1 population
change of cell cycle phase population compared to VC (KG-1a cells): neither curcumin nor shogaol induced significant changes in the cell cycle phase population
G2/M phase population (KG-1a cells; sub-G1 excluded): 31.38 ± 1.60%
effect on sub-G1 population compared to VC (KG-1a cells; [5]): significant increases in the sub-G1 population
inhibition of IL-2 release [3]: 80.04 ± 4.82%

COc1cc(/C=C/C(=O)CC(=O)/C=C/c2ccc(O)c(OC)c2)ccc1O [Curcumin, curcumin]
effect on sub-G1 population compared to VC (KG-1a cells; [4]): did not significantly increase the sub-G1 population
change of cell cycle phase population compared to VC (KG-1a cells): neither curcumin nor shogaol induced significant changes in the cell cycle phase population
G2/M phase population (KG-1a cells; sub-G1 excluded): 43.66 ± 6.75%
effect on sub-G1 population compared to VC (KG-1a cells; [5]): significant increases in the sub-G1 population
